From PubChem BioAssay (NCI) come the findings set out here.

Test systems include A498 renal; HOP-92 NSCLC; M14 melanoma; NCI-H460 lung; SK-MEL-5 melanoma; SK-OV-3 ovarian; SN12C renal; SNB-75 CNS; SR leukemia; HOP-62 NSCLC.
What all share (assay): inhibition of tumour cell growth, NCI panel, 48 h

Where “and” joins values, the source holds several entries; their conditions need not be identical. Equal entries are not always repeated.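 Cells were grown in 96-well plates and exposed to each compound for 48 hours at five concentrations; endpoints were interpolated linearly between bracketing concentrations, or set to the highest concentration if not reached. GI50: concentration for 50% inhibition of growth. TGI: concentration producing complete growth inhibition.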

For `COCCOCOC(C)(C)[C@H](CCO)O[Si](c1ccccc1)(c1ccccc1)C(C)(C)C`, the TGI came out at 31.6 µM in the test on A498 renal; 23.6 µM in the test on HOP-92 NSCLC; 21.8 µM in the test with M14 melanoma; 22.3 µM with NCI-H460 lung; 26.7 µM in the test with SK-MEL-5 melanoma; 26.5 µM in the test with SK-OV-3 ovarian. The TGI in the test with SN12C renal was 12.7 µM; in the test on SNB-75 CNS it was 21.6 µM; in the test with SR leukemia, 16.3 µM.

Consider `C/C(=N\NC(=S)Nc1ccc([N+](=O)[O-])cc1)c1nc2ncccc2[nH]1`, for which the TGI in the test with A498 renal stood at 8.76 µM; in the test with HOP-62 NSCLC it was 4.33 µM; in the test with HOP-92 NSCLC it was 18 µM; with M14 melanoma, 6.37 µM; in the test on NCI-H460 lung, 3.31 µM; in the test on SK-MEL-5 melanoma it was 5.27 µM. The TGI was 14.7 µM in the test on SK-OV-3 ovarian, 56.6 µM with SN12C renal, 4.1 µM in the test on SNB-75 CNS and greater than 100 µM in the test with SR leukemia.

`c1ccc2cc3c(cc2c1)OP1(Oc2cccc4cccnc24)(O3)Oc2cc3ccccc3cc2O1`: the TGI in the test on A498 renal is 64.3 µM; in the test with HOP-62 NSCLC, greater than 73.3 µM; in the test with HOP-92 NSCLC it was 76.3 µM; in the test on NCI-H460 lung it was 12.3 µM; in the test on SK-MEL-5 melanoma, 14.8 µM; with SK-OV-3 ovarian, greater than 96.6 µM. Further, the TGI was greater than 100 µM in the test on SN12C renal and 92.1 µM in the test with SNB-75 CNS.

Take `O=C1c2ccccc2C(=O)c2c1cc1c(c2[N+](=O)[O-])OCO1`: the GI50 was 0.0824 µM in the test with A498 renal; 1.74 µM in the test with HOP-62 NSCLC; 1.27 µM in the test on HOP-92 NSCLC; 3.78 µM in the test on M14 melanoma; 2.11 µM in the test with NCI-H460 lung; 3.48 µM in the test on SK-MEL-5 melanoma. Further, the values for the GI50 with SN12C renal, with SNB-75 CNS and with SR leukemia were 1.73 µM, 1.44 µM and 0.242 µM, respectively. Further, the TGI is 2.38 µM in the test on A498 renal; 5.19 µM in the test with HOP-62 NSCLC; 3.75 µM in the test with HOP-92 NSCLC; 16.9 µM with M14 melanoma; 7.06 µM in the test on NCI-H460 lung; 11.7 µM in the test on SK-MEL-5 melanoma. Also, the TGI in the test with SN12C renal was found to be 8.05 µM; with SNB-75 CNS, 3.46 µM; with SR leukemia, 1.55 µM.

`C/C(N=NS(=O)(=O)c1ccc(C)cc1)=C1\C=CC=CN1O`: the TGI in the test on A498 renal, in the test with HOP-62 NSCLC, with HOP-92 NSCLC, with M14 melanoma, in the test with NCI-H460 lung and with SK-MEL-5 melanoma was greater than 100 µM throughout. Also, the TGI with SK-OV-3 ovarian, in the test with SN12C renal, in the test on SNB-75 CNS and with SR leukemia was greater than 100 µM each time.

With `O=C(O)CCCc1ccccc1`, the GI50 with A498 renal is greater than 1000 µM; in the test with HOP-62 NSCLC, 235 µM and > 1000 µM; in the test on HOP-92 NSCLC, greater than 1000 µM; in the test with M14 melanoma it was greater than 1000 µM; with NCI-H460 lung, greater than 1000 µM; with SK-MEL-5 melanoma, greater than 1000 µM. The GI50 in the test with SK-OV-3 ovarian was 522 µM and > 1000 µM; in the test on SN12C renal it was greater than 1000 µM; in the test on SR leukemia, 215 µM and 28.5 µM. The TGI with A498 renal is 302 µM and > 1000 µM; in the test on HOP-62 NSCLC it was greater than 1000 µM; in the test with HOP-92 NSCLC, 363 µM and > 1000 µM; with M14 melanoma it was greater than 1000 µM; in the test with NCI-H460 lung, 295 µM and > 1000 µM; with SK-MEL-5 melanoma, 427 µM and > 1000 µM. For the same molecule, the TGI is greater than 1000 µM in the test on SK-OV-3 ovarian; greater than 1000 µM with SN12C renal; 327 µM and > 1000 µM in the test on SNB-75 CNS; greater than 1000 µM in the test with SR leukemia.

In the case of `Nc1n[nH]c(CCCCCCCc2nc(N)n[nH]2)n1`, the TGI in the test on A498 renal, in the test on HOP-62 NSCLC, in the test with M14 melanoma, with NCI-H460 lung, in the test on SK-OV-3 ovarian and in the test with SN12C renal was greater than 100 µM each time. Further, the TGI in the test on SNB-75 CNS and in the test with SR leukemia was greater than 100 µM in each case.

For the molecule `OC1COC(OCc2ccccc2)C(O)C1O` (stereo unspecified), the TGI in the test with A498 renal, with HOP-62 NSCLC, in the test on HOP-92 NSCLC, with M14 melanoma, in the test with NCI-H460 lung and in the test with SK-MEL-5 melanoma was greater than 100 µM in each case. In addition, the TGI with SK-OV-3 ovarian, in the test with SN12C renal and in the test with SR leukemia was greater than 100 µM in each case.

With `O=C(O)CC12CC3CC(CC(O)(C3)C1)C2`, the TGI in the test on A498 renal, in the test on HOP-62 NSCLC, with HOP-92 NSCLC, in the test with M14 melanoma, with NCI-H460 lung and in the test on SK-MEL-5 melanoma was greater than 100 µM each time. Moreover, the TGI in the test with SK-OV-3 ovarian, in the test on SN12C renal, in the test on SNB-75 CNS and in the test with SR leukemia was greater than 100 µM in each case.

`C=CCNC(=O)CN(CC(=O)OC)C1CCCCC1N(CC(=O)OC)CC(=O)OC` (stereo unspecified): the TGI in the test with A498 renal, in the test on HOP-62 NSCLC, with HOP-92 NSCLC, in the test with M14 melanoma, in the test with NCI-H460 lung and in the test with SK-MEL-5 melanoma was greater than 100 µM in each case. Further, the TGI with SK-OV-3 ovarian and in the test with SN12C renal was greater than 100 µM each time.

As for `CC(C)=CCC/C(C)=C/CCC1(C)C=Cc2c(c3ccccc3oc2=O)O1` (stereo unspecified), the TGI was 27.1 µM in the test on A498 renal; 17.8 µM in the test with HOP-62 NSCLC; 25 µM with HOP-92 NSCLC; 30.1 µM with NCI-H460 lung; 28.1 µM in the test on SK-MEL-5 melanoma; 50.8 µM in the test on SK-OV-3 ovarian. Further, the values for the TGI in the test with SN12C renal and in the test on SNB-75 CNS were 32 µM and 19.8 µM, respectively.

Take `COc1cc(C(=O)C2CC3(CCC2(O)c2cc(OC)c(OC)c(OC)c2)CC(=O)Nc2ccccc2C3=O)cc(OC)c1OC` (stereo unspecified): the TGI in the test with A498 renal is greater than 100 µM; with HOP-62 NSCLC, greater than 100 µM; in the test on HOP-92 NSCLC, greater than 100 µM; in the test on M14 melanoma, greater than 100 µM; with NCI-H460 lung, 50.7 µM; in the test on SK-MEL-5 melanoma, 81.2 µM. The TGI in the test on SK-OV-3 ovarian, in the test on SN12C renal, with SNB-75 CNS and in the test with SR leukemia was greater than 100 µM each time.

As for `Cc1cn(C2CC(O)C(Cn3nncc3Cn3ncc(=O)[nH]c3=O)O2)c(=O)[nH]c1=O` (stereo unspecified), the TGI with A498 renal, in the test with HOP-62 NSCLC, with HOP-92 NSCLC, in the test on M14 melanoma, in the test on SK-MEL-5 melanoma and with SK-OV-3 ovarian was greater than 100 µM each time. Also, the TGI in the test on SN12C renal is greater than 100 µM.

On to `COc1cc(/C=C/C2=C(C#N)C(=O)OC2(C)C)ccc1O`, for which the TGI in the test with A498 renal, in the test on HOP-62 NSCLC, in the test with HOP-92 NSCLC, with NCI-H460 lung, in the test with SK-MEL-5 melanoma and in the test on SK-OV-3 ovarian was greater than 100 µM each time. In addition, the results for the TGI with SN12C renal, with SNB-75 CNS and in the test on SR leukemia were greater than 100 µM, greater than 100 µM and 67.3 µM, respectively.

Regarding `Cc1cccc(CNc2ncnc3[nH]ncc23)c1`, the TGI in the test on A498 renal, in the test on HOP-62 NSCLC, in the test on HOP-92 NSCLC, with M14 melanoma, in the test with NCI-H460 lung and in the test with SK-MEL-5 melanoma was greater than 100 µM in each case. Further, the TGI with SK-OV-3 ovarian, in the test with SN12C renal, in the test on SNB-75 CNS and with SR leukemia was greater than 100 µM each time.

Take `CC(C)=CC(=O)OC1C2C(C)=CC(O)C(O)C2(C)C2C3(O)OCC24C(CC(=O)OC14)C(C)C3O` (stereo unspecified): the TGI in the test on A498 renal was 4.07 µM; in the test with HOP-62 NSCLC, 0.683 µM; in the test with HOP-92 NSCLC it was 0.26 µM; in the test with NCI-H460 lung, 0.337 µM; in the test on SK-MEL-5 melanoma, 0.064 µM; in the test with SN12C renal it was 6.9 µM. In addition, the TGI with SNB-75 CNS came to 0.693 µM.

As to `O=C(O)C12CC3CC(C1)C2C=C3P(=O)(O)O` (stereo unspecified), the TGI in the test with HOP-62 NSCLC, in the test on HOP-92 NSCLC, in the test on M14 melanoma, in the test with NCI-H460 lung, in the test on SK-OV-3 ovarian and in the test with SN12C renal was greater than 100 µM in each case. Also, the TGI with SNB-75 CNS is greater than 100 µM.

For `CC1SC(c2ccc(Cl)cc2)N(CCc2cccs2)C1=O` (stereo unspecified), the GI50 in the test on A498 renal is 1.21 µM; in the test on HOP-62 NSCLC, 1.61 µM; in the test with HOP-92 NSCLC it was 0.855 µM; in the test on NCI-H460 lung it was 1.56 µM; in the test with SK-MEL-5 melanoma, 1.43 µM; with SK-OV-3 ovarian, 2.05 µM. The GI50 was 1.7 µM with SN12C renal and 2.05 µM in the test on SNB-75 CNS. For the same molecule, the TGI with A498 renal was 2.47 µM; in the test with HOP-62 NSCLC, 3.16 µM; in the test with HOP-92 NSCLC it was 2.2 µM; in the test with NCI-H460 lung it was 3.26 µM; in the test on SK-MEL-5 melanoma it was 2.75 µM; with SK-OV-3 ovarian, 5.79 µM. Besides, the TGI with SN12C renal was 3.15 µM; in the test on SNB-75 CNS, 5.99 µM.

With `Cc1c(C2=NN=C(N=Nc3c(O)cccc3O)/C2=C/c2ccccc2)c(=O)n(-c2ccccc2)n1C`, the TGI in the test on A498 renal, in the test on HOP-62 NSCLC, in the test on HOP-92 NSCLC, in the test with NCI-H460 lung, in the test on SK-MEL-5 melanoma and in the test on SK-OV-3 ovarian was greater than 100 µM each time. Moreover, the TGI in the test with SN12C renal and with SNB-75 CNS was greater than 100 µM in each case.

Turning to `C=C1C2CCC3(CCC4C5(C)CCCC4(C=[N+](CCO)C5)C3C2)C1O` (stereo unspecified), the TGI with A498 renal, with HOP-62 NSCLC, with HOP-92 NSCLC, with M14 melanoma, in the test on NCI-H460 lung and in the test on SK-MEL-5 melanoma was greater than 100 µM in each case. Besides, the TGI in the test on SK-OV-3 ovarian, in the test on SN12C renal, in the test on SNB-75 CNS and in the test with SR leukemia was greater than 100 µM in each case.
